The molecules below were run on Amaranthus retoflexus (AMARE) (assay: Herbicidal glasshouse test, pre-emergence, AMARE). Conditions: applied at 1000 g/h, evaluated after 13 days.
Type: in vivo
Method in brief: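 This pre-emergence glasshouse herbicide test used Amaranthus retoflexus sown in standard soil. After one day of cultivation, an aqueous spray made from the technical ingredient in 50:50 acetone/water with 0.5% Tween 20 was applied. Pots stayed at 24/16° C., 14 hours light, 65% humidity, with twice-daily watering. Damage was rated on a five point scale (1=0-19% up to 5=80-100%).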

| SMILES | PRE Application AMARE, percentage damage (five point scale) |
| --- | --- |
| Cn1nnnc1NC(=O)c1nn(C)c(=O)n(CC2CC2)c1=O [Compound 1.093] | 5 (5=80-100%) |
| Cn1nnnc1NC(=O)c1nn(C)c(=O)n(CCC(F)(F)F)c1=O [Compound 1.094] | 5 (5=80-100%) |
| Cn1nnnc1NC(=O)c1nn(C)c(=O)n(CC2CCOCC2)c1=O [Compound 1.095] | 5 (5=80-100%) |
| Cn1nnnc1NC(=O)c1nn(C)c(=O)n(CC2CCCCC2)c1=O [Compound 1.096] | 5 (5=80-100%) |
| Cn1ncnc1OC(=O)c1cn(C)c(=O)n(-c2cccc(F)c2)c1=O [Compound 2.001] | 1 (1=0-19%) |

Each molecule was assayed on Setaria faberi (SETFA) (assay: Herbicidal glasshouse test, post-emergence, SETFA). Conditions: applied at 1000 g/h, evaluated after 13 days.
Type: in vivo
Method in brief: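 This post-emergence glasshouse herbicide test used potted Setaria faberi. Plants were cultivated for 8 days under controlled conditions (24/16° C. day/night, 14 hours light, 65% humidity) and then treated with an aqueous spray made from an acetone/water (50:50) solution containing 0.5% Tween 20. After 13 days of further growth with twice-daily watering, damage was rated on a five point scale (5=80-100%; 1=0-19%).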

| SMILES | POST Application SETFA, percentage damage (five point scale) |
| --- | --- |
| Cn1nnnc1NC(=O)c1nn(C)c(=O)n(CC2CC2)c1=O [Compound 1.093] | 5 (5=80-100%) |
| Cn1nnnc1NC(=O)c1nn(C)c(=O)n(CCC(F)(F)F)c1=O [Compound 1.094] | 5 (5=80-100%) |
| Cn1nnnc1NC(=O)c1nn(C)c(=O)n(CC2CCOCC2)c1=O [Compound 1.095] | 5 (5=80-100%) |
| Cn1nnnc1NC(=O)c1nn(C)c(=O)n(CC2CCCCC2)c1=O [Compound 1.096] | 5 (5=80-100%) |
| Cn1ncnc1OC(=O)c1cn(C)c(=O)n(-c2cccc(F)c2)c1=O [Compound 2.001] | 1 (1=0-19%) |

These molecules were tested on Alopecurus myosuroides (ALOMY) (assay: Herbicidal glasshouse test, pre-emergence, ALOMY). Conditions: applied at 1000 g/h, evaluated after 13 days.
Type: in vivo

| SMILES | PRE Application ALOMY, percentage damage (five point scale) |
| --- | --- |
| Cn1nnnc1NC(=O)c1nn(C)c(=O)n(CC2CC2)c1=O [Compound 1.093] | 5 (5=80-100%) |
| Cn1nnnc1NC(=O)c1nn(C)c(=O)n(CCC(F)(F)F)c1=O [Compound 1.094] | 5 (5=80-100%) |
| Cn1nnnc1NC(=O)c1nn(C)c(=O)n(CC2CCOCC2)c1=O [Compound 1.095] | 5 (5=80-100%) |
| Cn1nnnc1NC(=O)c1nn(C)c(=O)n(CC2CCCCC2)c1=O [Compound 1.096] | 5 (5=80-100%) |
| Cn1ncnc1OC(=O)c1cn(C)c(=O)n(-c2cccc(F)c2)c1=O [Compound 2.001] | 1 (1=0-19%) |

What follows are molecules tested on Ipomoea hederacea (IPOHE) (assay: Herbicidal glasshouse test, pre-emergence, IPOHE). Conditions: applied at 1000 g/h, evaluated after 13 days.
Type: in vivo

| SMILES | PRE Application IPOHE, percentage damage (five point scale) |
| --- | --- |
| Cn1nnnc1NC(=O)c1nn(C)c(=O)n(CC2CC2)c1=O [Compound 1.093] | 5 (5=80-100%) |
| Cn1nnnc1NC(=O)c1nn(C)c(=O)n(CCC(F)(F)F)c1=O [Compound 1.094] | 5 (5=80-100%) |
| Cn1nnnc1NC(=O)c1nn(C)c(=O)n(CC2CCOCC2)c1=O [Compound 1.095] | 5 (5=80-100%) |
| Cn1nnnc1NC(=O)c1nn(C)c(=O)n(CC2CCCCC2)c1=O [Compound 1.096] | 5 (5=80-100%) |
| Cn1ncnc1OC(=O)c1cn(C)c(=O)n(-c2cccc(F)c2)c1=O [Compound 2.001] | 1 (1=0-19%) |

Each molecule was assayed on Echinochloa crus-galli (ECHCG) (assay: Herbicidal glasshouse test, pre-emergence, ECHCG). Conditions: applied at 1000 g/h, evaluated after 13 days.
Type: in vivo
Method in brief: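 In this pre-emergence glasshouse test, ECHCG seeds sown in pots of standard soil were sprayed one day after sowing with the test material in acetone/water (50:50) containing 0.5% Tween 20. Plants were kept at 24/16° C., 14 hours light, 65% humidity, and watered twice daily. Percentage damage was rated after 13 days on a 1–5 scale.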

| SMILES | PRE Application ECHCG, percentage damage (five point scale) |
| --- | --- |
| Cn1nnnc1NC(=O)c1nn(C)c(=O)n(CC2CC2)c1=O [Compound 1.093] | 5 (5=80-100%) |
| Cn1nnnc1NC(=O)c1nn(C)c(=O)n(CCC(F)(F)F)c1=O [Compound 1.094] | 5 (5=80-100%) |
| Cn1nnnc1NC(=O)c1nn(C)c(=O)n(CC2CCOCC2)c1=O [Compound 1.095] | 5 (5=80-100%) |
| Cn1nnnc1NC(=O)c1nn(C)c(=O)n(CC2CCCCC2)c1=O [Compound 1.096] | 5 (5=80-100%) |
| Cn1ncnc1OC(=O)c1cn(C)c(=O)n(-c2cccc(F)c2)c1=O [Compound 2.001] | 1 (1=0-19%) |

Each molecule was assayed on Solanum nigrum (SOLNI) (assay: Herbicidal glasshouse test, post-emergence, SOLNI). Conditions: applied at 1000 g/h, evaluated after 13 days.
Type: in vivo

| SMILES | POST Application SOLNI, percentage damage (five point scale) |
| --- | --- |
| Cn1nnnc1NC(=O)c1nn(C)c(=O)n(CC2CC2)c1=O [Compound 1.093] | 5 (5=80-100%) |
| Cn1nnnc1NC(=O)c1nn(C)c(=O)n(CCC(F)(F)F)c1=O [Compound 1.094] | 5 (5=80-100%) |
| Cn1nnnc1NC(=O)c1nn(C)c(=O)n(CC2CCOCC2)c1=O [Compound 1.095] | 5 (5=80-100%) |
| Cn1nnnc1NC(=O)c1nn(C)c(=O)n(CC2CCCCC2)c1=O [Compound 1.096] | 5 (5=80-100%) |
| Cn1ncnc1OC(=O)c1cn(C)c(=O)n(-c2cccc(F)c2)c1=O [Compound 2.001] | 4 (4=60-79%) |

The molecules below were run on Setaria faberi (SETFA) (assay: Herbicidal glasshouse test, pre-emergence, SETFA). Conditions: applied at 1000 g/h, evaluated after 13 days.
Type: in vivo

| SMILES | PRE Application SETFA, percentage damage (five point scale) |
| --- | --- |
| Cn1nnnc1NC(=O)c1nn(C)c(=O)n(CC2CC2)c1=O [Compound 1.093] | 5 (5=80-100%) |
| Cn1nnnc1NC(=O)c1nn(C)c(=O)n(CCC(F)(F)F)c1=O [Compound 1.094] | 5 (5=80-100%) |
| Cn1nnnc1NC(=O)c1nn(C)c(=O)n(CC2CCOCC2)c1=O [Compound 1.095] | 5 (5=80-100%) |
| Cn1nnnc1NC(=O)c1nn(C)c(=O)n(CC2CCCCC2)c1=O [Compound 1.096] | 4 (4=60-79%) |
| Cn1ncnc1OC(=O)c1cn(C)c(=O)n(-c2cccc(F)c2)c1=O [Compound 2.001] | 1 (1=0-19%) |

The molecules below were run on Ipomoea hederacea (IPOHE) (assay: Herbicidal glasshouse test, post-emergence, IPOHE). Conditions: applied at 1000 g/h, evaluated after 13 days.
Type: in vivo

| SMILES | POST Application IPOHE, percentage damage (five point scale) |
| --- | --- |
| Cn1nnnc1NC(=O)c1nn(C)c(=O)n(CC2CC2)c1=O [Compound 1.093] | 5 (5=80-100%) |
| Cn1nnnc1NC(=O)c1nn(C)c(=O)n(CCC(F)(F)F)c1=O [Compound 1.094] | 5 (5=80-100%) |
| Cn1nnnc1NC(=O)c1nn(C)c(=O)n(CC2CCOCC2)c1=O [Compound 1.095] | 5 (5=80-100%) |
| Cn1nnnc1NC(=O)c1nn(C)c(=O)n(CC2CCCCC2)c1=O [Compound 1.096] | 5 (5=80-100%) |
| Cn1ncnc1OC(=O)c1cn(C)c(=O)n(-c2cccc(F)c2)c1=O [Compound 2.001] | 1 (1=0-19%) |

These molecules were tested on Solanum nigrum (SOLNI) (assay: Herbicidal glasshouse test, pre-emergence, SOLNI). Conditions: applied at 1000 g/h, evaluated after 13 days.
Type: in vivo
Method in brief: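 This pre-emergence glasshouse herbicide test used Solanum nigrum sown in standard soil. One day after sowing, pots were sprayed with the compound in acetone/water (50:50) with 0.5% Tween 20. They were then grown at 24/16° C., with 14 hours light and 65% humidity, and watered twice daily. Percentage damage was scored after 13 days on a five point scale, where 5=80-100% and 1=0-19%.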

| SMILES | PRE Application SOLNI, percentage damage (five point scale) |
| --- | --- |
| Cn1nnnc1NC(=O)c1nn(C)c(=O)n(CC2CC2)c1=O [Compound 1.093] | 5 (5=80-100%) |
| Cn1nnnc1NC(=O)c1nn(C)c(=O)n(CCC(F)(F)F)c1=O [Compound 1.094] | 5 (5=80-100%) |
| Cn1nnnc1NC(=O)c1nn(C)c(=O)n(CC2CCOCC2)c1=O [Compound 1.095] | 5 (5=80-100%) |
| Cn1nnnc1NC(=O)c1nn(C)c(=O)n(CC2CCCCC2)c1=O [Compound 1.096] | 5 (5=80-100%) |
| Cn1ncnc1OC(=O)c1cn(C)c(=O)n(-c2cccc(F)c2)c1=O [Compound 2.001] | 1 (1=0-19%) |

Each molecule was assayed on Echinochloa crus-galli (ECHCG) (assay: Herbicidal glasshouse test, post-emergence, ECHCG). Conditions: applied at 1000 g/h, evaluated after 13 days.
Type: in vivo
Method in brief: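 In this post-emergence glasshouse test, barnyard grass (ECHCG) was cultivated for 8 days under controlled conditions (24/16° C. day/night, 14 hours light, 65% humidity). It was then sprayed with an aqueous solution of the technical compound in acetone / water (50:50) with 0.5% Tween 20. Plants were kept under the same conditions and watered twice daily. After 13 days, percentage damage was rated on a five point scale (5=80-100%; 1=0-19%).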

| SMILES | POST Application ECHCG, percentage damage (five point scale) |
| --- | --- |
| Cn1nnnc1NC(=O)c1nn(C)c(=O)n(CC2CC2)c1=O [Compound 1.093] | 5 (5=80-100%) |
| Cn1nnnc1NC(=O)c1nn(C)c(=O)n(CCC(F)(F)F)c1=O [Compound 1.094] | 5 (5=80-100%) |
| Cn1nnnc1NC(=O)c1nn(C)c(=O)n(CC2CCOCC2)c1=O [Compound 1.095] | 5 (5=80-100%) |
| Cn1nnnc1NC(=O)c1nn(C)c(=O)n(CC2CCCCC2)c1=O [Compound 1.096] | 5 (5=80-100%) |
| Cn1ncnc1OC(=O)c1cn(C)c(=O)n(-c2cccc(F)c2)c1=O [Compound 2.001] | 1 (1=0-19%) |

Each molecule was assayed on Amaranthus retoflexus (AMARE) (assay: Herbicidal glasshouse test, post-emergence, AMARE). Conditions: applied at 1000 g/h, evaluated after 13 days.
Type: in vivo
Method in brief: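 This post-emergence glasshouse test used AMARE plants raised in standard soil for 8 days under controlled conditions (24/16° C. day/night, 14 hours light, 65% humidity). Foliage was sprayed with formulated compound in acetone/water (50:50) containing 0.5% Tween 20. Plants were then watered twice daily, and after 13 days percentage damage was rated on a five point scale.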

| SMILES | POST Application AMARE, percentage damage (five point scale) |
| --- | --- |
| Cn1nnnc1NC(=O)c1nn(C)c(=O)n(CC2CC2)c1=O [Compound 1.093] | 5 (5=80-100%) |
| Cn1nnnc1NC(=O)c1nn(C)c(=O)n(CCC(F)(F)F)c1=O [Compound 1.094] | 5 (5=80-100%) |
| Cn1nnnc1NC(=O)c1nn(C)c(=O)n(CC2CCOCC2)c1=O [Compound 1.095] | 5 (5=80-100%) |
| Cn1nnnc1NC(=O)c1nn(C)c(=O)n(CC2CCCCC2)c1=O [Compound 1.096] | 5 (5=80-100%) |
| Cn1ncnc1OC(=O)c1cn(C)c(=O)n(-c2cccc(F)c2)c1=O [Compound 2.001] | 4 (4=60-79%) |

The molecules below were run on Alopecurus myosuroides (ALOMY) (assay: Herbicidal glasshouse test, post-emergence, ALOMY). Conditions: applied at 1000 g/h, evaluated after 13 days.
Type: in vivo

| SMILES | POST Application ALOMY, percentage damage (five point scale) |
| --- | --- |
| Cn1nnnc1NC(=O)c1nn(C)c(=O)n(CC2CC2)c1=O [Compound 1.093] | 5 (5=80-100%) |
| Cn1nnnc1NC(=O)c1nn(C)c(=O)n(CCC(F)(F)F)c1=O [Compound 1.094] | 5 (5=80-100%) |
| Cn1nnnc1NC(=O)c1nn(C)c(=O)n(CC2CCOCC2)c1=O [Compound 1.095] | 5 (5=80-100%) |
| Cn1nnnc1NC(=O)c1nn(C)c(=O)n(CC2CCCCC2)c1=O [Compound 1.096] | 4 (4=60-79%) |
| Cn1ncnc1OC(=O)c1cn(C)c(=O)n(-c2cccc(F)c2)c1=O [Compound 2.001] | 1 (1=0-19%) |

Reference: patent US20160009693A1, “HERBICIDAL COMPOUNDS” (SYNGENTA LIMITED, priority 2013, published 2016)
